Where two headings read alike, the source gives them in different places.

Holding throughout (type): cell-based
One experiment deals with primary human mast cells. The experiment is described as follows: Mast cell cytokine release (cytokine array). The note with it: 100 μM B2, 24 h, IgE/anti-IgE. The procedure: FIG. 8 is a plot showing average relative intensity of cytokine levels relative to control showing the modulation of mast cell cytokine release by B2. Average of 3 experiments.
Mast cell cytokine release: Primary human mast cells developed in culture from CD34+ precursors as described above in relation to mast cell degranulation were stimulated at a cell density of 0.8×10^6 cells/ml by 0.12 mg/ml IgE and 0.1 μg/ml anti-IgE in mast cell medium (StemSpan SFEM including 100 ng/ml SCF, 50 ng/ml IL6, 2 & FBS, and 1% Pen/Strep). Simultaneously, the cells were treated with 100 μM B2, and cytokine levels present in the culture supernatants were measured after 24 h. The levels of 105 cytokines were measured by the R&D Systems Human XL cytokine array as per manufacturer's instructions. The signals were measured by a fluorescence-based photometric read-out in the Li—COR Odyssey Fluorescent imaging system, and the spots quantified by Fiji software.
To investigate the modulation of mast cell cytokine release by B2, primary human mast cells were stimulated by IgE/anti-IgE, treated with 100 μM B2, and cytokine levels present in the culture supernatants measured after 24 h. The levels of 105 cytokines were measured by the R&D Systems Human XL cytokine array and a fluorescence-based photometric read-out.

The subject of a further experiment is primary human B cells. The experiment is described as follows: B lymphocyte plasmablast development (CD38+/CD19low and CD138+ by FACS). The following applies: 5 days; FIG. 4 (20 and 10 μM). The protocol: The effect of two concentrations (from right to left: 20 and 10 μM) of B2 is shown in each plot in comparison to control (far left). Each symbol represents one experiment.
B lymphocyte plasmablast development: For human B lymphocyte plasmablast development, primary human B cells were isolated from buffy coat using the MACSxpress Buffy Coat Pan B Cell Isolation Kit (Miltenyi Biotec) as per manufacturer's instructions. The cells were cultured in RPMI in the presence of human transferrin (20 μg/ml), IL-21 (100 ng/ml), recombinant hCD40L (100 μg/ml), anti-HA (50 μg/ml), at a cell density of 5×10^4 cells/ml. Plasmablast formation after 5 days was measured by FACS using two sets of markers: CD38+/CD19low and CD138+ for two stages of plasmablast development.
To investigate the inhibition of B lymphocyte plasmablast development by B2, primary human B cells, isolated from buffy coat, were cultured in the presence of CD40, IL21, anti-IgM, and plasmablast formation measured by FACS using two sets of markers: CD38+/CD19low (FIG. 4, upper plot) and CD138+(FIG. 4, lower plot) for two stages of plasmablast development.
(Flow cytometry measures light scatter and fluorescence of single cells or particles in a stream.)

The subject of the next experiment is human primary mast cells. As to the kind of experiment: Mast cell degranulation (Lamp-1/CD107a by FACS). The following applies: IgE/anti-IgE; FIG. 6 (100, 50, 20 μM). The procedure: Three different concentrations of B2 were tested (from left to right: 100, 50 and 20 μM) and the average of 11 experiments is shown as % reduction in degranulation (left plot). Degranulation was also measured at 3 time points (from left to right: 30, 15 and 5 minutes) after addition of 100 μM B2 (right plot).
Mast cell degranulation: Human primary mast cells were developed in StemSpan™ SFEM including 125 ng/ml SCF and 20 ng/ml IL3 from CD34+ hematopoietic precursor cells, and their purity after 4 to 5 weeks measured by FACS for c-kit and FceRI expression. This was measured by FACS using the appearance of Lamp-1 (CD107a) in line with that previously described by Klewer et al. (2021), applied here to human primary mast cells. Degranulation was triggered by preincubation of mast cells overnight with 1.3 μg/ml IgE followed by treatment with 0.2 μg/ml anti-IgE for 30 min.
To investigate the inhibition of mast cell degranulation by B2, degranulation was measured by FACS using the appearance of Lamp-1 (CD107a) on the surface of human primary mast cells upon degranulation. Degranulation was triggered by IgE/anti-IgE and B2 was applied 30 minutes before adding IgE. Three different concentrations of B2 were tested; from left to right in FIG. 6 (left plot): 100, 50 and 20 μM. […] Degranulation was also measured at 3 time points after addition of 100 μM B2 (FIG. 6, right plot).

Experiment [1] relates to Primary human pulmonary microvascular endothelial cells (HPMEC). As to the kind of experiment: Pulmonary endothelial cell cytokine release (TNFα triggered, cytokine array). The note with it: for inhibition at 50 µM: Homo sapiens, Endothelial cell, 50 μM B2, activated by TNF. The procedure:
Endothelial cell cytokine release: Primary human pulmonary microvascular endothelial cells (HPMEC) were purchased from Promocell and maintained in endothelial cell media from Promocell as per the company's protocol. To measure the release of inflammatory mediators HPMEC were cultured to confluence in a 12 well plate in 1 ml of endothelial cell media. Cells were then stimulated with TNFα at 100 ng/ml overnight in the presence or absence of B2 or control DMSO. The supernatant was then collected and inflammatory mediator levels were measured in it using the Cytokine XXL array from R&D systems according to manufacturer's instructions as described above.
Human primary pulmonary endothelial cells were triggered to produce cytokines by the pro-inflammatory cytokine TNFα. The levels of 105 cytokines in the cell culture supernatant were measured by the R&D Systems Human XL cytokine array and a fluorescence-based photometric read-out. The table lists cytokines whose production was reduced by >50% (left) or 20 to 50% upon treatment with 50 μM B2 (right).

With `Cc1onc(-c2ccccc2Cl)c1C(=O)Nc1nc2ccc([N+](=O)[O-])cc2s1` [B2, 3-(2-chlorophenyl)-5-methyl-N-(6-nitrobenzo[d]thiazol-2-yl)isoxazole-4-carboxamide], the “mast cell cytokine release profile” value in the experiment on primary human mast cells is given as “reducing specific pro-inflammatory cytokines”. In addition, the “human B cell plasmablast development” value with primary human B cells was “inhibition of human B cell plasmablast development”. Also, the “IgE-mediated mast cell degranulation” value in the experiment on human primary mast cells is “inhibited by B2 in IgE-mediated degranulation”. The inhibition at 50 µM was 20 to 50% in experiment [1] (*Poor dose response, only minor increase with TNF, read-out: FGF19 production, reduction); 20 to 50% in experiment [1] (read-out: CCL2/MCP-1 production, reduction); above 50% in experiment [1] (read-out: CCL5/RANTES production, reduction); 20 to 50% in experiment [1] (read-out: CCL20/MIP-3 alpha production, reduction); above 50% in experiment [1] (read-out: CXCL1/GRO-alpha production, reduction); above 50% in experiment [1] (read-out: CXCL5/ENA-78 production, reduction). Moreover, the inhibition at 50 µM is 20 to 50% in experiment [1] (read-out: CXCL10/IP10 production, reduction); above 50% in experiment [1] (read-out: GMCSF production, reduction); above 50% in experiment [1] (read-out: HGF production, reduction); above 50% in experiment [1] (read-out: ICAM-1 production, reduction); 20 to 50% in experiment [1] (read-out: Pentraxin-3 production, reduction); above 50% in experiment [1] (read-out: TFF3 production, reduction). In experiment [1] (read-out: VCAM-1 production, reduction), the inhibition at 50 µM is above 50%. Also, the “human pulmonary endothelial cell cytokine release profile” value in experiment [1] (TNFα, Table 1) is “reducing specific pro-inflammatory cytokines”. In experiment [1] (TNFα, Table 1), the “secretion of several chemokines by endothelial cells” value was “substantially reduced”. In addition, the “secretion of several soluble adhesion molecules by endothelial cells” value in experiment [1] (TNFα, Table 1) was “reduced”. In addition, the “FGF19 production, dose response” value in experiment [1] (activated by TNF, footnote * to FGF19) is on record as “*Poor dose response, only minor increase with TNF”.

Values taken from patent US20260337187A1, “COMPOUNDS FOR TREATMENT OF INFLAMMATORY PROCESSES” (THORNE LIMITED, priority 2022, published 2026).
